According to US10226509B2, “Lymphangiogenesis inhibitors for cancer and for graft survival” (TUFTS UNIVERSITY, priority 2014, dated 2019):
Entries after “also recorded” stand apart in the source; their conditions may differ.

Assays:
ERK1/2 = experiment: Western blot of ERK activation in primary LECs; type: cell-based, human; conditions: 0.5 μM for 0 to 60 minutes or 0 to 0.5 μM for 30 minutes
Description: Primary LECs were lysed with Triton lysis buffer supplemented with protease inhibitor cocktail and Phos-STOP phosphatase inhibitor cocktail (Roche), and subjected to electrophoresis in 4-15% SDS-PAGE gels (Bio-Rad). Protein blots of the gels were blocked with 0.5×Odyssey® blocking buffer (OBB, Li-COR). For AKT and ERK signaling, blots were incubated with primary antibodies (rabbit anti-ERK1/2, 1:7500, Cell Signaling Technology; mouse anti-phospho-ERK1/2, Thr202/Tyr204, 1:2000, Cell Signaling Technology; mouse anti-AKT1/2/3, 1:2000, Cell Signaling Technology; rabbit anti-phospho-AKT, Ser473, 1:1500, Cell Signaling Technology) overnight at 4° C. Blots were washed with 0.5% Tween-20/PBS three times, and were incubated with appropriate secondary antibodies (donkey anti-rabbit IRDye 680LT and anti-mouse IRDye 800CW, Li-Cor) for 45 min at 25° C. The blots were scanned by an Odyssey® Infrared Imaging System using Image Studio v2.0 software (Li-COR). […] Signals were detected by Odyssey® Infrared Imaging System. […]

LEC spheroids = experiment: LEC sprouting assay: stimulation by galectins alone; type: cell-based, human
Description: LEC spheroids were generated by seeding primary LECs at passage 4 or 5 in each well of 384-well hanging-drop plates (3D Biomatrix) in complete EGM-2 MV medium containing 0.25% methyl cellulose according to the manufacturer's instructions (750 cells/well). After 18 hours, LEC spheroids were collected, resuspended in serum-free EBM-2 basal medium, and mixed with collagen solution (PureCol collagen, Advanced BioMatrix, 2.2 mg/ml in M199 medium, pH adjusted to 7.4 with NaHCO3 and NaOH). Aliquots of the LEC spheroid/collagen mixture (250 μl/well of 48-well plate) were incubated in the presence or absence of various test agents for 24 hr. At the end of the incubation period, spheroids were stained with Calcein AM (Invitrogen, 1 μg/mL, 37° C., and 30 min). Fluorescent images were acquired using the EVOS FL cell imaging system, pixels were inverted for better visualization and cumulative length of each sprout was calculated. Results were expressed as fold change compared to corresponding controls. It was observed that sprout lengths vary from passages to passages. Test agents used included thiodigalactoside (10 to 50 mM, Carbosynth), 3′-sialyl lactose (2 to 10 mM, Carbosynth), 6′-sialyl lactose (2 to 10 mM, Carbosynth), LY294002 (20 μM, Abeam), U0126 (20 μM, Abeam), PD0325901 (1 μM, Selleckchem), human VEGFR-3-Fc chimera (10 μg/ml, R&D), human VEGFR-2-Fc chimera (10 μg/ml, R&D), Avastin (10 μg/ml, bevacizumab, Genentech/Roche), human control IgG (10 μg/ml, Southern Biotech), anti-human podoplanin functional grade antibody (10 μg/ml, eBioscience), and rat IgG2a κ isotype control functional grade antibody (10 μg/ml, eBioscience).
To assess the effect of galectins on LEC sprouting, LEC spheroids were embedded in a collagen matrix and incubated with media containing various test agents. After 24 hours, the cumulative length of the sprouts for each spheroid was quantified by ImageJ. […] Multiple approaches were used to determine whether the stimulatory effect of Gal-8 on LEC sprouting was carbohydrate-dependent.

PDPN = experiment: Cell surface expression of PDPN by flow cytometry; type: cell-based, human; conditions: 30 min post-treatment; Gal-8 0.2 μM
Description: (§1) Primary LECs were serum-starved overnight in basal EBM-2 medium. The cells were incubated with or without VEGF-C (50 ng/ml, PeproTech) or Gal-8 (0.2 μM) in serum-free EBM-2 medium for 10 and 30 min. At the end of the incubation period, cells were lifted with StemPro® Accutase® cell dissociation reagent (Invitrogen), washed with PBS and fixed with 4% paraformaldehyde/PBS on ice for 10 min, and were then stained using rat anti-human PDPN (1:500, BioLegend) and mouse anti-human VEGFR-3 (clone 9D9F9) (1:100, BioLegend) primary antibodies in cell staining buffer (BioLegend, 45 min on ice) and Alexa Fluor® 488 donkey anti-rat and Alexa Fluor® 647 anti-mouse secondary antibodies (1:1000, Invitrogen, 30 min on ice). For negative control, the primary antibodies were omitted. The stained cells were fixed with 2% paraformaldehyde/PBS, analyzed with BD FACSCalibur, and the mean fluorescence intensity of VEGFR-3 and PDPN were quantified with the FlowJo software (version 9.5.2).

VEGF-C = target: T1, VEGF-C (Homo sapiens, UniProt P49767); experiment: Affinity precipitation assay, VEGF-C; type: binding; conditions: galectin-conjugated agarose beads
T1 construct: Primary LECs were incubated with agarose beads (control), and galectin-conjugated agarose beads at 4° C. overnight; endogenous in cells; host or cells: primary lymphatic endothelial cells (LECs)
T1 sequence (P49767 112-227): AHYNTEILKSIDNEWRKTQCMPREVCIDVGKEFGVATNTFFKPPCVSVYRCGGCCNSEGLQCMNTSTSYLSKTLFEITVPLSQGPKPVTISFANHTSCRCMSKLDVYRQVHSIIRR

VEGFR-3 = experiment: Cell surface expression of VEGFR-3 by flow cytometry; type: cell-based, human; conditions: Gal-8 0.2 μM or VEGF-C 50 ng/ml
Description: as §1

In the case of “Gal-8: recombinant galectin-8, tandem-repeat type galectin with two different CRDs”, the “phosphorylation of ERK1/2 (in words)” value (ERK1/2) is reported as “induced phosphorylation of AKT and ERK1/2 in time- and dose-dependent manner”, the “promotion of LEC sprouting by the agent alone (in words)” value (LEC spheroids; 24 hours) is reported as “concentration-dependent and was comparable to that of VEGF-C; also recorded: promotes LEC sprouting” and the “Hill's coefficient (nH) of galectin-8-mediated LEC sprouting” value (LEC spheroids; dose-response curve) is reported as 3.7. The EC50 (LEC spheroids; sprouting activity at 0.75 μM set at 100%, read-out: EC50 of galectin-8-mediated LEC sprouting) was 520 nM, the “increase of cell surface expression of PDPN” value (PDPN) was “about 30%” and the “binding to VEGF-C (in words)” value (VEGF-C) was “does not interact with VEGF-C”. For the same substance, the “decrease of cell surface expression of VEGFR-3” value (VEGFR-3) was “about 10%”.
